# Data from patent US20180125816A1, “SAROGLITAZAR MAGNESIUM FOR THE TREATMENT OF CHYLOMICRONEMIA SYNDROME” (CADILA HEALTHCARE LIMITED, priority 2015, published 2018).
# Experiments:
# Zucker fa/fa rats [1] = assay: Severe hypertriglyceridemia induced by Triton WR-1339 (inhibition of LPL) in Zucker fa/fa rats, serum triglycerides; assay type: in vivo, rat; settings: for % Change in AUC-TG vs Vehicle Control: AUC 0-48 hr; for reduction in serum triglycerides (TG): 0-hr time point, after repeat dose treatment
# Method: The obese Zucker (fatty) rat is one of the oldest models of NIDDM, resembling human type II diabetes, i.e. diabetes associated with obesity. It is characterized by hyperphagia and associated with mild hyperglycaemia, insulin resistance, mild glucose intolerance, hyperlipidaemia specially hypertriglyceridemia. When the non-ionic detergent Triton WR-1339 is injected into Zucker fa/fa rats, there is a progressive accumulation of triacylglycerols in the plasma/serum (Friedman & Byers, 1953; Otway & Robinson, 1967). […] So the nonionic detergent, Triton WR-1339 (Triton), has commonly been used to inhibit LPL for this purpose to produce the condition of severe hypertriglyceridemia similar to familial chylomicronemia syndrome and Type V hyperlipoproteinemia.
# In this study 20 male and 14 female Zucker fa/fa rats of 6-10 weeks of age were selected for the and on day-0, body weight of animals recorded and blood samples (approximately 80 μl to 90 μl) was collected via retro orbital route using isoflurane as inhalation anaesthesia, serum separated and serum triglyceride estimated and 24 animals were selected and grouped on the basis of serum triglyceride level as primary parameter as below
# From hyphen or day-1 to Day-14, compounds were formulated in 5% PEG+5% Tween 80+90% (0.5%) Na-CMC in such, a way that the final volume of administration was 2 ml/kg of body wt, and animals were dosed orally once daily as per grouping details.
# On day-14 blood samples were collected after 1 hour of dosing, serum separated and serum triglycerides (TG) was estimated. Animals were being kept on 24 hours fasting after completion of day-14 activities. On day-15, after 24 hours of fasting, body wt. of all animals was recorded. Then formulations of treatment items were prepared in vehicle and Triton WR-1339 prepared in 0.9% saline for intraperitoneal injection at dose of 250 mg/kg per 5 ml. Basal blood samples collected and animals were administered orally with respective treatment and immediately injected intraperitoneally with Triton WR-1339. Blood samples (approx, 1 ml per sample) were also collected at 6 hr, 24 hours and 48 hours after triton administration and serum triglycerides levels were estimated using Cobas C 311 clinical chemistry autoanalyser from Roche Diagnostics using commercial diagnostic kits.
# % change at 6-hr, 24-hr and 48-hr for TG vs Vehicle Control was calculated using MS using MS Excel. The area under curve for TG, AUC-TG (0-48), was calculated using Graph Pad® software.
# Zucker fa/fa rats [2] = assay: Fatty tolerance test with 13C-palmitate/corn oil after 14 days repeated dosing: hyper-chylomicronemia and chylomicron dynamics; assay type: in vivo, rat; settings: for 13C Palmitate / Palmitate total: adipose tissue
# Method: In this study, the effect of Compound (1) on hyper-chylomicronemia and chylomicron dynamics in Zucker fa/fa rats after 14 days repeated dose administration was evaluated.
# Zucker (fa/fa) fatty rat of 7-8 weeks of age were purchased from Charles River Laboratory and single-housed under a pathogen free environment with constant room temperature (20-22° C.) and relative humidity (40-50%) and a 6:00 pm-6:00 am dark-light cycle. Rats were provided with free access to food (Lab Diet 5L0D, an irradiated regular rodent diet containing 23% of protein and 4.5% of fat) and water. Initial body weight and body composition (using a NMR analyzer) were measured 6 days post-arrival. The rats were then randomly divided into four dosing groups based BW and fat mass as below—
# Dosing was begun at 9-10 weeks of age, once daily (8-10 am) by oral gavage for 14 days. On the day-14 of dosing, a final body composition (after dosing) was measured. On day-15, all animals were given a fatty tolerance test (FTT) after being fasted overnight (15-16 hours), followed by blood and tissue collection.
# Fatty Tolerance Test Procedure (FTT): • 1. Following an overnight fast, rats were orally gavaged with a mixture of ^13C-Palmitic Acid (1 and corn oil (1 g of^13C-P dissolved in 5 ml of corn oil) at 5 ml/kg·bw. • 2. Blood samples were collected via tail vein bleeding using 3×300 ul EDTA tubes at the following time points:
# 0 hour (initial), 1 hour, 2 hour, 3 hour, 4 hour, 5 hour, 6 hour, 8 hour
# After the 8 hour bleeding, rats were knocked down in a drop jar using isoflurane. Once sedated, the rats were hooked up to a Midmark Matrx Anesthesia isoflurane machine that dispensed isoflurane vapor at […] with an oxygen flow rate of 1 L/min. Organs and tissues were dissected and frozen immediately in liquid nitrogen and stored at −80° C. LCMS and GCMS were used to assess the incorporation of ^13C lipids into plasma and tissue lipids (n=5 for tissue metabolomics studies).
structure (smiles),measurement,setting,value
"CCO[C@@H](Cc1ccc(OCCn2c(C)ccc2-c2ccc(SC)cc2)cc1)C(=O)O [Compound (1), Saroglitazar Magnesium]",reduction in AUC-TG Vs Vehicle control group,Zucker fa/fa rats [1]; 1 mg/kg,48%
same,AUC-TG (0-48 hr.),Zucker fa/fa rats [1]; 1 mg/kg p.o. once daily,54241.5 ± 11182.3 mg·h/dL
same,Serum Triglycerides after Triton WR-1339 administration,"Zucker fa/fa rats [1]; 1 mg/kg p.o. once daily, 0 hr",188.3 ± 15.6 mg/dL
same,Serum Triglycerides after Triton WR-1339 administration,"Zucker fa/fa rats [1]; 1 mg/kg p.o. once daily, 6 hr",438.5 ± 52.7 mg/dL
same,Serum Triglycerides after Triton WR-1339 administration,"Zucker fa/fa rats [1]; 1 mg/kg p.o. once daily, 24 hr",1797.2 ± 331.3 mg/dL
same,Serum Triglycerides after Triton WR-1339 administration,"Zucker fa/fa rats [1]; 1 mg/kg p.o. once daily, 48 hr",889.5 ± 353.9 mg/dL
same,% Change in TG Vs Vehicle Control,"Zucker fa/fa rats [1]; 1 mg/kg p.o., 0 hr after Triton WR-1339",−63.7 ± 3.0%
same,% Change in TG Vs Vehicle Control,"Zucker fa/fa rats [1]; 1 mg/kg p.o., 6 hr after Triton WR-1339",−43.6 ± 6.8%
same,% Change in TG Vs Vehicle Control,"Zucker fa/fa rats [1]; 1 mg/kg p.o., 24 hr after Triton WR-1339",−44.7 ± 10.2%
same,% Change in TG Vs Vehicle Control,"Zucker fa/fa rats [1]; 1 mg/kg p.o., 48 hr after Triton WR-1339",−59.1 ± 16.3%
same,% Change in AUC-TG vs Vehicle Control,Zucker fa/fa rats [1]; 1 mg/kg p.o.,−48.4 ± 10.6%
same,reduction in serum triglycerides (TG),Zucker fa/fa rats [1]; 1 mg/kg,64%
same,reduction in AUC-TG Vs Vehicle control group,Zucker fa/fa rats [1]; 10 mg/kg,63%
same,AUC-TG (0-48 hr.),Zucker fa/fa rats [1]; 10 mg/kg p.o. once daily,39050.3 ± 6922.7 mg·h/dL
same,Serum Triglycerides after Triton WR-1339 administration,"Zucker fa/fa rats [1]; 10 mg/kg p.o. once daily, 0 hr",93.2 ± 7.9 mg/dL
same,Serum Triglycerides after Triton WR-1339 administration,"Zucker fa/fa rats [1]; 10 mg/kg p.o. once daily, 6 hr",328.9 ± 111.9 mg/dL
same,Serum Triglycerides after Triton WR-1339 administration,"Zucker fa/fa rats [1]; 10 mg/kg p.o. once daily, 24 hr",1463.8 ± 265.3 mg/dL
same,Serum Triglycerides after Triton WR-1339 administration,"Zucker fa/fa rats [1]; 10 mg/kg p.o. once daily, 48 hr",340.4 ± 151.7 mg/dL
same,% Change in TG Vs Vehicle Control,"Zucker fa/fa rats [1]; 10 mg/kg p.o., 0 hr after Triton WR-1339",−82.0 ± 1.5%
same,% Change in TG Vs Vehicle Control,"Zucker fa/fa rats [1]; 10 mg/kg p.o., 6 hr after Triton WR-1339",−57.7 ± 14.4%
same,% Change in TG Vs Vehicle Control,"Zucker fa/fa rats [1]; 10 mg/kg p.o., 48 hr after Triton WR-1339",−84.3 ± 7.0%
same,% Change in AUC-TG vs Vehicle Control,Zucker fa/fa rats [1]; 10 mg/kg p.o.,−62.9 ± 6.6%
same,reduction in serum triglycerides (TG),Zucker fa/fa rats [1]; 10 mg/kg,82%
same,lowering of TG levels (in words),"Zucker fa/fa rats [1]; 1 and 10 mg/kg, all time points after Triton WR-1339",dose dependent lowering of TG levels at all-time points
same,blunting an increase in serum triglycerides (in words),Zucker fa/fa rats [1]; compared to fenofibrate,significantly effective in blunting an increase in serum triglycerides
same,plasma triglyceride (TG) in FTT (in words),Zucker fa/fa rats [2]; 0 and 2 hour post corn oil treatment,significantly reduced plasma triglyceride (TG)
same,% Change in 13C Palmitate uptake in adipose tissue Vs Vehicle Control,Zucker fa/fa rats [2]; 0.4 mg/kg p.o.,86%
same,Plasma TG in FTT,"Zucker fa/fa rats [2]; 0.4 mg/kg p.o. 14 days, 0 min",330.5 ± 39.2 mg/dL
same,Plasma TG in FTT,"Zucker fa/fa rats [2]; 0.4 mg/kg p.o. 14 days, 120 min",389.2 ± 21.8 mg/dL
same,13C Palmitate,Zucker fa/fa rats [2]; 0.4 mg/kg p.o.,6.20 ± 0.89 Nanomole/mg protein
same,Palmitate total,Zucker fa/fa rats [2]; 0.4 mg/kg p.o.,7.14 ± 0.30 micromole/mg protein
same,% Change in 13C Palmitate uptake in adipose tissue Vs Vehicle Control,Zucker fa/fa rats [2]; 4 mg/kg p.o.,247%
same,Plasma TG in FTT,"Zucker fa/fa rats [2]; 4 mg/kg p.o. 14 days, 0 min",84.7 ± 9.3 mg/dL
same,Plasma TG in FTT,"Zucker fa/fa rats [2]; 4 mg/kg p.o. 14 days, 120 min",171.3 ± 28.2 mg/dL
same,13C Palmitate,Zucker fa/fa rats [2]; 4 mg/kg p.o.,11.57 ± 0.73 Nanomole/mg protein
same,Palmitate total,Zucker fa/fa rats [2]; 4 mg/kg p.o.,6.60 ± 0.29 micromole/mg protein
same,fasting and postprandial TG levels (in words),Zucker fa/fa rats [2]; conclusion of the study,significantly reduces fasting and postprandial TG levels
same,increase in accumulation of M+16 palmitate in adipose tissue,Zucker fa/fa rats [2]; high dose (4 mg/kg),247%
same,appearance of M+16 TG species TG (52:3) and TG (52:4) in plasma (in words),Zucker fa/fa rats [2]; low (0.4 mg/kg) and high (4 mg/kg) dose,significantly attenuated the appearance of M+16 TG
same,gastrocnemius M+16 palmitate labeling (in words),Zucker fa/fa rats [2]; low and high dose (0.4 and 4 mg/kg),decreased gastrocnemius M+16 palmitate labeling
same,increase in accumulation of M+16 palmitate in adipose tissue,Zucker fa/fa rats [2]; low dose (0.4 mg/kg),86%
"CC(C)OC(=O)C(C)(C)Oc1ccc(C(=O)c2ccc(Cl)cc2)cc1 [Fenofibrate, reference compound]",reduction in AUC-TG Vs Vehicle control group,Zucker fa/fa rats [1]; 65 mg/kg,11%
same,AUC-TG (0-48 hr.),Zucker fa/fa rats [1]; 65 mg/kg p.o. once daily,93412.8 ± 12023.5 mg·h/dL
same,Serum Triglycerides after Triton WR-1339 administration,"Zucker fa/fa rats [1]; 65 mg/kg p.o. once daily, 0 hr",324.9 ± 45.3 mg/dL
same,Serum Triglycerides after Triton WR-1339 administration,"Zucker fa/fa rats [1]; 65 mg/kg p.o. once daily, 6 hr",1048.1 ± 147.4 mg/dL
same,Serum Triglycerides after Triton WR-1339 administration,"Zucker fa/fa rats [1]; 65 mg/kg p.o. once daily, 24 hr",2871.5 ± 357.4 mg/dL
same,Serum Triglycerides after Triton WR-1339 administration,"Zucker fa/fa rats [1]; 65 mg/kg p.o. once daily, 48 hr",1630.0 ± 329.8 mg/dL
same,% Change in TG Vs Vehicle Control,"Zucker fa/fa rats [1]; 65 mg/kg p.o., 0 hr after Triton WR-1339",−37.4 ± 8.7%
same,% Change in TG Vs Vehicle Control,"Zucker fa/fa rats [1]; 65 mg/kg p.o., 6 hr after Triton WR-1339",34.9 ± 19.0%
same,% Change in TG Vs Vehicle Control,"Zucker fa/fa rats [1]; 65 mg/kg p.o., 48 hr after Triton WR-1339",−25.0 ± 15.2%
same,% Change in 13C Palmitate uptake in adipose tissue Vs Vehicle Control,Zucker fa/fa rats [2]; 150 mg/kg p.o.,−14%
same,Plasma TG in FTT,"Zucker fa/fa rats [2]; 150 mg/kg p.o. 14 days, 120 min",502.2 ± 8.1 mg/dL
same,13C Palmitate,Zucker fa/fa rats [2]; 150 mg/kg p.o.,2.88 ± 0.57 Nanomole/mg protein
same,Palmitate total,Zucker fa/fa rats [2]; 150 mg/kg p.o.,6.90 ± 0.24 micromole/mg protein
